One test deals with PTK2 (FAK) (Homo sapiens (Human), UniProt Q05397). The experiment in a line: Z′-LYTE kinase assay (SelectScreen Biochemical Kinase Profiling), enzymatic IC50. To be noted: FAK IC50. As for the experimental part: Enzymatic IC50 data was obtained through ThermoFisher Scientific SelectScreen™ Biochemical Kinase Profiling Service, using a Z′-LYTE™ kinase-specific assay, as described below.
PTK2 (FAK), sequence (Q05397 whole entry): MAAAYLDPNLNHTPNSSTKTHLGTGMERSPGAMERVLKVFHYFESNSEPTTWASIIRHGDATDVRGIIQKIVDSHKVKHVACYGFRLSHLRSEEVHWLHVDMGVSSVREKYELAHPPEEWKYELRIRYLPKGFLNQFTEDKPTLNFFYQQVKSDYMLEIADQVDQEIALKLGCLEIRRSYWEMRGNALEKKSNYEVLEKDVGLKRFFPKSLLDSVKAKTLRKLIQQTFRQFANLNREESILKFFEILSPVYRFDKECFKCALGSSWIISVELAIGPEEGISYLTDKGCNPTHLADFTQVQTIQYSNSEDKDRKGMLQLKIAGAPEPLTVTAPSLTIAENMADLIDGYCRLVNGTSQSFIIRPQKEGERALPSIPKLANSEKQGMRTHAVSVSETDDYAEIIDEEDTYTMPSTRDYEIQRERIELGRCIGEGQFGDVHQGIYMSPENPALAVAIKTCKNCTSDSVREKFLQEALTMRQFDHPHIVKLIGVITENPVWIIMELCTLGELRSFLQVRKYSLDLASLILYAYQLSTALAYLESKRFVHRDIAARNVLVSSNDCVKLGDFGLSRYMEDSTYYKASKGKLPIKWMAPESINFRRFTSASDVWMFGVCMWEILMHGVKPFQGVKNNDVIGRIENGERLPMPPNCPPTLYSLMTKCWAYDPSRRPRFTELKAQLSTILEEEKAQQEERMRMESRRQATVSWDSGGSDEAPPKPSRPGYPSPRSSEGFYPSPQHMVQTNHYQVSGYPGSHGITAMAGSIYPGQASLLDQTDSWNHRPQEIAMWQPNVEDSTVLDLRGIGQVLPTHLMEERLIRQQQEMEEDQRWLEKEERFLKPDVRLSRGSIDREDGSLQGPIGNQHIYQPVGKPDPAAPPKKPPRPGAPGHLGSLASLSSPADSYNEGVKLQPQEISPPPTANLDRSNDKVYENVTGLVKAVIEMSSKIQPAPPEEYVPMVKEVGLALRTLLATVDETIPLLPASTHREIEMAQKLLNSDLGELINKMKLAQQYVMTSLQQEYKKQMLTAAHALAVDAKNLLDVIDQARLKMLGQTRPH
The test compounds were screened in 1% dimethyl sulfoxide (DMSO) (final) in the well. For 10 point titrations, 3-fold serial dilutions were conducted from the starting concentration.
All peptide/kinase mixtures were diluted to a 2× working concentration in the appropriate kinase buffer (see section kinase specific assay conditions for a complete description).
All ATP solutions were diluted to a 4× working concentration in kinase buffer (50 mM 4-(2-hydroxyethyl)-1-piperazineethanesulfonic acid (HEPES) pH 7.5, 0.01% BRIJ-35, 10 mM MgCl2, 1 mM ethylene glycol-bis(β-aminoethyl ether)-N,N,N′,N′-tetraacetic acid (EGTA)). ATP Km apparent was previously determined using a Z′-LYTE assay.
The development reagent was diluted in development buffer (see section kinase-specific assay conditions—direct and cascade for a complete description).
Using a bar-coded Corning, low volume NBS, black 384-well plate (Corning Cat. #4514), 100 nL of 100× test compound in 100% DMSO was added. […] The plate was then shaken for 30 seconds and held at room temperature for a 60 minute kinase reaction incubation period. At which point 5 μL of development reagent solution was added and the plate was shaken for 30 seconds. The plate was held again at room temperature for a 60 minute development reaction incubation period and then read on a fluorescence plate reader and analyzed.
The 2×PTK2 (FAK)/Tyr 07 mixture was prepared in 50 mM HEPES pH 7.5, 0.01% BRIJ-35, 10 mM MgCl2, 1 mM EGTA. […] After the 1 hour kinase reaction incubation period, 5 μL of a 1:16 dilution of development reagent B was added.
SelectScreen Kinase Profiling Service uses XLfit from ID Business Solutions (IDBS). The dose response curve was curve fit to model number 205 (sigmoidal dose-response model).
With `COc1cc(N2CCC(N3CCN(C)CC3)CC2)ccc1Nc1ncc2c(n1)N(C)c1scnc1C(=O)N2` [Compound 6, 6-((2-methoxy-4-(4-(4-methylpiperazin-1-yl)piperidin-1-yl)phenyl)amino)-4-methyl-4,9-dihydro-10H-pyrimido[5,4-b]thiazolo[5,4-e][1,4]diazepin-10-one], the “loss in potency relative to 3” value came out at 8 fold.

Staying with this test, now noted: enzymatic, Z′-LYTE; read-out: FAK IC50.
What is called IC50 is the point on the concentration scale where inhibition reaches its midpoint. Consider `COc1cc(N2CCC(N3CCN(C)CC3)CC2)ccc1Nc1ncc2c(n1)N(C)c1sc(-c3ccccc3)nc1C(=O)N2C` [Compound 186, 6-((2-methoxy-4-(4-(4-methylpiperazin-1-yl)piperidin-1-yl)phenyl)amino)-4,9-dimethyl-2-phenyl-4,9-dihydro-10H-pyrimido[5,4-b]thiazolo[5,4-e][1,4]diazepin-10-one], for which the IC50 was more than 10 µM.
For `COc1cc(N2CCN(C)CC2)ccc1Nc1ncc2c(n1)N(C)c1sc(C)nc1C(=O)N2` [Compound 7, 6-((2-methoxy-4-(4-methylpiperazin-1-yl)phenyl)amino)-2,4-dimethyl-4,9-dihydro-10H-pyrimido[5,4-b]thiazolo[5,4-e][1,4]diazepin-10-one], the IC50 came out at 0.0487 µM.
In the case of `Cc1nc2c(s1)N(C)c1nc(Nc3ccc(N4CCN(C)CC4)cc3)ncc1NC2=O` [Compound 1, 2,4-dimethyl-6-((4-(4-methylpiperazin-1-yl)phenyl)amino)-4,9-dihydro-10H-pyrimido[5,4-b]thiazolo[5,4-e][1,4]diazepin-10-one], the IC50 was 0.228 µM.
Still for that read-out and setting: with `CCc1nc2c(s1)N(C)c1nc(Nc3ccc(N4CCC(N5CCN(C)CC5)CC4)cc3OC)ncc1NC2=O` [Compound 8, 2-ethyl-6-((2-methoxy-4-(4-(4-methylpiperazin-1-yl)piperidin-1-yl)phenyl)amino)-4-methyl-4,9-dihydro-10H-pyrimido[5,4-b]thiazolo[5,4-e][1,4]diazepin-10-one] the figure was 0.0321 µM; with `COc1cc(N2CCN(S(C)(=O)=O)CC2)ccc1Nc1ncc2c(n1)N(C)c1sc(C)nc1C(=O)N2` [Compound 11, 6-((2-methoxy-4-(4-(methylsulfonyl)piperazin-1-yl)phenyl)amino)-2,4-dimethyl-4,9-dihydro-10H-pyrimido[5,4-b]thiazolo[5,4-e][1,4]diazepin-10-one], 0.0176 µM.
On to `Cc1nc2c(s1)N(C)c1nc(Nc3ccc(N4CCN(C)CC4)cc3OCC(F)(F)F)ncc1N(C)C2=O` [Compound 201, 2,4,9-trimethyl-6-((4-(4-methylpiperazin-1-yl)-2-(2,2,2-trifluoroethoxy)phenyl)amino)-4,9-dihydro-10H-pyrimido[5,4-b]thiazolo[5,4-e][1,4]diazepin-10-one], for which the IC50 turned out to be 0.0835 µM.
Regarding `C=CC(=O)N1CCN(c2ccc(Nc3ncc4c(n3)N(C)c3sc(C)nc3C(=O)N4C)c(OC)c2)CC1` [Compound 13, 6-((4-(4-acryloylpiperazin-1-yl)-2-methoxyphenyl)amino)-2,4,9-trimethyl-4,9-dihydro-10H-pyrimido[5,4-b]thiazolo[5,4-e][1,4]diazepin-10-one], the IC50 was determined as 0.0536 µM.
Consider `COc1cc(N2CCC(N3CCN(C)CC3)CC2)ccc1Nc1ncc2c(n1)N(CC(F)(F)F)c1sc(C)nc1C(=O)N2C` [Compound 204, 6-((2-methoxy-4-(4-(4-methylpiperazin-1-yl)piperidin-1-yl)phenyl)amino)-2,9-dimethyl-4-(2,2,2-trifluoroethyl)-4,9-dihydro-10H-pyrimido[5,4-b]thiazolo[5,4-e][1,4]diazepin-10-one], for which the IC50 worked out at 0.0683 µM.
Still for that read-out and setting: for `Cc1nc2c(s1)N(C)c1nc(Nc3ccc(N4CCC(O)CC4)cc3)ncc1NC2=O` [Compound 2, 6-((4-(4-hydroxypiperidin-1-yl)phenyl)amino)-2,4-dimethyl-4,9-dihydro-10H-pyrimido[5,4-b]thiazolo[5,4-e][1,4]diazepin-10-one] the value was 0.58 µM.
The same measure, in the same setting: for `COc1cc(N2CCN(CCN(C)C)CC2)ccc1Nc1ncc2c(n1)N(C)c1sc(C)nc1C(=O)N2C` [Compound 200, 6-((4-(4-(2-(dimethylamino)ethyl)piperazin-1-yl)-2-methoxyphenyl)amino)-2,4,9-trimethyl-4,9-dihydro-10H-pyrimido[5,4-b]thiazolo[5,4-e][1,4]diazepin-10-one] the value was 0.0672 µM; for `CCc1nc2c(s1)N(C)c1nc(Nc3ccc(N4CCC(N5CCN(C)CC5)CC4)cc3OC)ncc1N(C)C2=O` [Compound 193, 2-ethyl-6-((2-methoxy-4-(4-(4-methylpiperazin-1-yl)piperidin-1-yl)phenyl)amino)-4,9-dimethyl-4,9-dihydro-10H-pyrimido[5,4-b]thiazolo[5,4-e][1,4]diazepin-10-one], 0.0317 µM; for `COc1cc(N2CCC(N3CCN(C)CC3)CC2)ccc1Nc1ncc2c(n1)N(C)c1sc(C(C)C)nc1C(=O)N2C` [Compound 203, 2-isopropyl-6-((2-methoxy-4-(4-(4-methylpiperazin-1-yl)piperidin-1-yl)phenyl)amino)-4,9-dimethyl-4,9-dihydro-10H-pyrimido[5,4-b]thiazolo[5,4-e][1,4]diazepin-10-one], 0.0588 µM.
On the same count and under the same terms, with `CN1CCN(c2ccc(Nc3ncc4c(n3)N(C)c3sc(-c5ccccc5)nc3C(=O)N4C)cc2)CC1` [Compound 184, 4,9-dimethyl-6-((4-(4-methylpiperazin-1-yl)phenyl)amino)-2-phenyl-4,9-dihydro-10H-pyrimido[5,4-b]thiazolo[5,4-e][1,4]diazepin-10-one] the figure was more than 10 µM.
In the case of `CCCN1c2nc(Nc3ccc(N4CCC(N5CCN(C)CC5)CC4)cc3OC)ncc2N(C)C(=O)c2nc(C)sc21` [Compound 205, 6-((2-methoxy-4-(4-(4-methylpiperazin-1-yl)piperidin-1-yl)phenyl)amino)-2,9-dimethyl-4-propyl-4,9-dihydro-10H-pyrimido[5,4-b]thiazolo[5,4-e][1,4]diazepin-10-one], the IC50 turned out to be 0.0466 µM.
For `COc1cc(N2CCN(C)CC2=O)ccc1Nc1ncc2c(n1)N(C)c1sc(C)nc1C(=O)N2C` [Compound 196, 6-((2-methoxy-4-(4-methyl-2-oxopiperazin-1-yl)phenyl)amino)-2,4,9-trimethyl-4,9-dihydro-10H-pyrimido[5,4-b]thiazolo[5,4-e][1,4]diazepin-10-one], the IC50 turned out to be 0.0824 µM.
`COc1cc(N2CCC(N3CCN(C)CC3)CC2)ccc1Nc1ncc2c(n1)N(C)c1scnc1C(=O)N2` [Compound 6, 6-((2-methoxy-4-(4-(4-methylpiperazin-1-yl)piperidin-1-yl)phenyl)amino)-4-methyl-4,9-dihydro-10H-pyrimido[5,4-b]thiazolo[5,4-e][1,4]diazepin-10-one]: the IC50 was 0.51 µM.
On the same count and under the same terms, with `Cc1nc2c(s1)N(C)c1nc(Nc3ccc(N4CCN(C)CC4)cn3)ncc1N(C)C2=O` [Compound 24, 2,4,9-trimethyl-6-((5-(4-methylpiperazin-1-yl)pyridin-2-yl)amino)-4,9-dihydro-10H-pyrimido[5,4-b]thiazolo[5,4-e][1,4]diazepin-10-one] the figure was 0.196 µM; with `Cc1nc2c(s1)N(C)c1nc(Nc3ccc(N4CCN(C)CC4)cc3OCCO)ncc1N(C)C2=O` [Compound 17, 6-((2-(2-hydroxyethoxy)-4-(4-methylpiperazin-1-yl)phenyl)amino)-2,4,9-trimethyl-4,9-dihydro-10H-pyrimido[5,4-b]thiazolo[5,4-e][1,4]diazepin-10-one], 0.465 µM.
Turning to `COc1cc(Nc2ncc3c(n2)N(C)c2sc(C)nc2C(=O)N3)ccc1N1CCN(C)CC1` [Compound 4, 6-((3-methoxy-4-(4-methylpiperazin-1-yl)phenyl)amino)-2,4-dimethyl-4,9-dihydro-10H-pyrimido[5,4-b]thiazolo[5,4-e][1,4]diazepin-10-one], the IC50 was 0.0904 µM.

Staying with this test, now noted: phenyl substituent at thiazole 2-position.
With `CN1CCN(c2ccc(Nc3ncc4c(n3)N(C)c3sc(-c5ccccc5)nc3C(=O)N4C)cc2)CC1` [Compound 184, 4,9-dimethyl-6-((4-(4-methylpiperazin-1-yl)phenyl)amino)-2-phenyl-4,9-dihydro-10H-pyrimido[5,4-b]thiazolo[5,4-e][1,4]diazepin-10-one], the “FAK inhibitory activity (in words)” value was “abrogated activity”.

For the origin of these results see patent US12365696B2, “Small-molecule focal adhesion kinase (FAK) inhibitors” (DANA-FARBER CANCER INSTITUTE, INC., priority 2019, dated 2025).
